Assays:
Assay in all cases: KINOMEscan
Type in all cases: binding
Conditions in all cases: 35 at 1 µM; read-out: % inhibition
PIP5K2B = target: T1, PIP5K2B (Homo sapiens, UniProt P78356)
T1 construct: purchased Eurofins DiscoverX (KINOMEscan)
Method: (§1) KinomeScan Assay on 35 was performed as previously described at EuroFins DiscoverX (Fremont, CA, USA).

AMPK-alpha2 = target: T2, AMPK-alpha2 (Homo sapiens, UniProt P54646)
T2 construct: purchased Eurofins DiscoverX (KINOMEscan)
Method: as §1

CDK9 = target: T3, CDK9 (Homo sapiens, UniProt P50750)
T3 construct: purchased Eurofins DiscoverX (KINOMEscan)
Method: as §1

PIM2 = target: T4, PIM2 (Homo sapiens, UniProt Q9P1W9)
T4 construct: purchased Eurofins DiscoverX (KINOMEscan)
Method: as §1

LCK = target: T5, LCK (Homo sapiens, UniProt P06239)
T5 construct: purchased Eurofins DiscoverX (KINOMEscan)
Method: as §1

MLK2 = target: T6, MLK2 (Homo sapiens, UniProt Q02779)
T6 construct: purchased Eurofins DiscoverX (KINOMEscan)
Method: as §1

CLK3 = target: T7, CLK3 (Homo sapiens, UniProt P49761)
T7 construct: purchased Eurofins DiscoverX (KINOMEscan)
Method: as §1

ERK3 = target: T8, ERK3 (Homo sapiens, UniProt Q16659)
T8 construct: purchased Eurofins DiscoverX (KINOMEscan)
Method: as §1

DAPK3 = target: T9, DAPK3 (Homo sapiens, UniProt O43293)
T9 construct: purchased Eurofins DiscoverX (KINOMEscan)
Method: as §1

ITK = target: T10, ITK (Homo sapiens, UniProt Q08881)
T10 construct: purchased Eurofins DiscoverX (KINOMEscan)
Method: as §1

CDK4-cyclinD1 = target: T11, CDK4-cyclinD1 (Homo sapiens, UniProt P11802)
T11 construct: purchased Eurofins DiscoverX (KINOMEscan)
Method: as §1

ABL1-nonphosphorylated = target: T12, ABL1-nonphosphorylated (Homo sapiens, UniProt P00519)
T12 construct: purchased Eurofins DiscoverX (KINOMEscan)
Method: as §1

p38-delta = target: T13, p38-delta (Homo sapiens, UniProt O15264)
T13 construct: purchased Eurofins DiscoverX (KINOMEscan)
Method: as §1

ANKK1 = target: T14, ANKK1 (Homo sapiens, UniProt Q8NFD2)
T14 construct: purchased Eurofins DiscoverX (KINOMEscan)
Method: as §1

KIT(L576P) = target: T15, KIT(L576P) (Homo sapiens, UniProt P10721, L576P)
T15 construct: purchased Eurofins DiscoverX (KINOMEscan)
Method: as §1

TEC = target: T16, TEC (Homo sapiens, UniProt P42680)
T16 construct: purchased Eurofins DiscoverX (KINOMEscan)
Method: as §1

[1] = target: T17, JAK1(JH2domain-pseudokinase) (Homo sapiens, UniProt P23458)
T17 construct: JAK1(JH2domain-pseudokinase); purchased Eurofins DiscoverX (KINOMEscan)
Method: as §1

PIK4CB = target: T18, PIK4CB (Homo sapiens, UniProt Q9UBF8)
T18 construct: purchased Eurofins DiscoverX (KINOMEscan)
Method: as §1

MST3 = target: T19, MST3 (Homo sapiens, UniProt Q9Y6E0)
T19 construct: purchased Eurofins DiscoverX (KINOMEscan)
Method: as §1

FLT3(K663Q) = target: T20, FLT3(K663Q) (Homo sapiens, UniProt P36888, K663Q)
T20 construct: purchased Eurofins DiscoverX (KINOMEscan)
Method: as §1

NEK2 = target: T21, NEK2 (Homo sapiens, UniProt P51955)
T21 construct: purchased Eurofins DiscoverX (KINOMEscan)
Method: as §1

TRPM6 = target: T22, TRPM6 (Homo sapiens, UniProt Q9BX84)
T22 construct: purchased Eurofins DiscoverX (KINOMEscan)
Method: as §1

TRKC = target: T23, TRKC (Homo sapiens, UniProt Q16288)
T23 construct: purchased Eurofins DiscoverX (KINOMEscan)
Method: as §1

LZK = target: T24, LZK (Homo sapiens, UniProt O43283)
T24 construct: purchased Eurofins DiscoverX (KINOMEscan)
Method: as §1

TAOK1 = target: T25, TAOK1 (Homo sapiens, UniProt Q7L7X3)
T25 construct: purchased Eurofins DiscoverX (KINOMEscan)
Method: as §1

FLT3(D835V) = target: T26, FLT3(D835V) (Homo sapiens, UniProt P36888, D835V)
T26 construct: purchased Eurofins DiscoverX (KINOMEscan)
Method: as §1

CDC2L5 = target: T27, CDC2L5 (Homo sapiens, UniProt Q14004)
T27 construct: purchased Eurofins DiscoverX (KINOMEscan)
Method: as §1

PKMYT1 = target: T28, PKMYT1 (Homo sapiens, UniProt Q99640)
T28 construct: purchased Eurofins DiscoverX (KINOMEscan)
Method: as §1

ASK1 = target: T29, ASK1 (Homo sapiens, UniProt Q99683)
T29 construct: purchased Eurofins DiscoverX (KINOMEscan)
Method: as §1

HPK1 = target: T30, HPK1 (Homo sapiens, UniProt Q92918)
T30 construct: purchased Eurofins DiscoverX (KINOMEscan)
Method: as §1

CLK1 = target: T31, CLK1 (Homo sapiens, UniProt P49759)
T31 construct: purchased Eurofins DiscoverX (KINOMEscan)
Method: as §1

SRPK1 = target: T32, SRPK1 (Homo sapiens, UniProt Q96SB4)
T32 construct: purchased Eurofins DiscoverX (KINOMEscan)
Method: as §1

FGR = target: T33, FGR (Homo sapiens, UniProt P09769)
T33 construct: purchased Eurofins DiscoverX (KINOMEscan)
Method: as §1

MAP3K2 = target: T34, MAP3K2 (Homo sapiens, UniProt Q9Y2U5)
T34 construct: purchased Eurofins DiscoverX (KINOMEscan)
Method: as §1

BRK = target: T35, BRK (Homo sapiens, UniProt Q13882)
T35 construct: purchased Eurofins DiscoverX (KINOMEscan)
Method: as §1

EGFR(E746-A750del) = target: T36, EGFR(E746-A750del) (Homo sapiens, UniProt P00533, DEL746-750)
T36 construct: purchased Eurofins DiscoverX (KINOMEscan)
Method: as §1

ALK(L1196M) = target: T37, ALK(L1196M) (Homo sapiens, UniProt Q9UM73, L1196M)
T37 construct: purchased Eurofins DiscoverX (KINOMEscan)
Method: as §1

EGFR(S752-I759del) = target: T38, EGFR(S752-I759del) (Homo sapiens, UniProt P00533, DEL752-759)
T38 construct: purchased Eurofins DiscoverX (KINOMEscan)
Method: as §1

PIK3CA(M1043I) = target: T39, PIK3CA(M1043I) (Homo sapiens, UniProt P42336, M1043I)
T39 construct: purchased Eurofins DiscoverX (KINOMEscan)
Method: as §1

CDK2 = target: T40, CDK2 (Homo sapiens, UniProt P24941)
T40 construct: purchased Eurofins DiscoverX (KINOMEscan)
Method: as §1

[2] = target: T41, RPS6KA5(Kin.Dom.2-C-terminal) (Homo sapiens, UniProt O75582)
T41 construct: RPS6KA5(Kin.Dom.2-C-terminal); purchased Eurofins DiscoverX (KINOMEscan)
Method: as §1

DLK = target: T42, DLK (Homo sapiens, UniProt Q12852)
T42 construct: purchased Eurofins DiscoverX (KINOMEscan)
Method: as §1

T10 sequence (Q08881 whole entry): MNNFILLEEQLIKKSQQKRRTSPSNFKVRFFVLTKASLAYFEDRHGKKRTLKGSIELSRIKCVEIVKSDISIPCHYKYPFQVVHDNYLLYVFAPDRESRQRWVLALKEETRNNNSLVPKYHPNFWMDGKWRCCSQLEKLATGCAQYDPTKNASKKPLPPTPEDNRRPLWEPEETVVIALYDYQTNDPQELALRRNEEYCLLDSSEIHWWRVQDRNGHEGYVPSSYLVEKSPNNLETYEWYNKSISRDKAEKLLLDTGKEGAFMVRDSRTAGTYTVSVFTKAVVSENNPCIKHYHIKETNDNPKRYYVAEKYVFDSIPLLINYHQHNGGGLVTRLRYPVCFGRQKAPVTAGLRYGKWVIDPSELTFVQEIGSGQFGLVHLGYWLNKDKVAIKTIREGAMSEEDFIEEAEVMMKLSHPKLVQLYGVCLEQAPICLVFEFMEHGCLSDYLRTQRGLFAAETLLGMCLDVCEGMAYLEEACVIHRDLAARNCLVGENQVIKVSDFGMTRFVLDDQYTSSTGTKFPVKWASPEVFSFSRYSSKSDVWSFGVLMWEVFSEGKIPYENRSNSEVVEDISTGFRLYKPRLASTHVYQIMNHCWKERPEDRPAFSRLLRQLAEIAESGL
T11 sequence (P11802 whole entry): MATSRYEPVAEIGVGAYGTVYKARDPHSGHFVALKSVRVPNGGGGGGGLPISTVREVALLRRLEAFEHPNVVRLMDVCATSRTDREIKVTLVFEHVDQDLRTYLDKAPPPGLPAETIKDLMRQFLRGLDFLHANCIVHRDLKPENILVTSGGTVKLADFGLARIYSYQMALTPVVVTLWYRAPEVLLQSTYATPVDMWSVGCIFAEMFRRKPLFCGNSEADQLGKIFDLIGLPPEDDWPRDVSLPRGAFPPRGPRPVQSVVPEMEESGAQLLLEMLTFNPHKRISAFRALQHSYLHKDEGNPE
T11 sequence (P24385 whole entry partner): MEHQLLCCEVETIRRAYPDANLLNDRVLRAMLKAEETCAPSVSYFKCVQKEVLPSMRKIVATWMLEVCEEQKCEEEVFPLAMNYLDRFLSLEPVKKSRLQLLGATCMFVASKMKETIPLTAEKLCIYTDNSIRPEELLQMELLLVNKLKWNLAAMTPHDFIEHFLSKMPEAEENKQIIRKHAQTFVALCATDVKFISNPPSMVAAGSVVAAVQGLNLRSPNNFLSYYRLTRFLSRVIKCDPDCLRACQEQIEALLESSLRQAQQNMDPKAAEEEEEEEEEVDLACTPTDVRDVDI
T12 sequence (P00519 whole entry): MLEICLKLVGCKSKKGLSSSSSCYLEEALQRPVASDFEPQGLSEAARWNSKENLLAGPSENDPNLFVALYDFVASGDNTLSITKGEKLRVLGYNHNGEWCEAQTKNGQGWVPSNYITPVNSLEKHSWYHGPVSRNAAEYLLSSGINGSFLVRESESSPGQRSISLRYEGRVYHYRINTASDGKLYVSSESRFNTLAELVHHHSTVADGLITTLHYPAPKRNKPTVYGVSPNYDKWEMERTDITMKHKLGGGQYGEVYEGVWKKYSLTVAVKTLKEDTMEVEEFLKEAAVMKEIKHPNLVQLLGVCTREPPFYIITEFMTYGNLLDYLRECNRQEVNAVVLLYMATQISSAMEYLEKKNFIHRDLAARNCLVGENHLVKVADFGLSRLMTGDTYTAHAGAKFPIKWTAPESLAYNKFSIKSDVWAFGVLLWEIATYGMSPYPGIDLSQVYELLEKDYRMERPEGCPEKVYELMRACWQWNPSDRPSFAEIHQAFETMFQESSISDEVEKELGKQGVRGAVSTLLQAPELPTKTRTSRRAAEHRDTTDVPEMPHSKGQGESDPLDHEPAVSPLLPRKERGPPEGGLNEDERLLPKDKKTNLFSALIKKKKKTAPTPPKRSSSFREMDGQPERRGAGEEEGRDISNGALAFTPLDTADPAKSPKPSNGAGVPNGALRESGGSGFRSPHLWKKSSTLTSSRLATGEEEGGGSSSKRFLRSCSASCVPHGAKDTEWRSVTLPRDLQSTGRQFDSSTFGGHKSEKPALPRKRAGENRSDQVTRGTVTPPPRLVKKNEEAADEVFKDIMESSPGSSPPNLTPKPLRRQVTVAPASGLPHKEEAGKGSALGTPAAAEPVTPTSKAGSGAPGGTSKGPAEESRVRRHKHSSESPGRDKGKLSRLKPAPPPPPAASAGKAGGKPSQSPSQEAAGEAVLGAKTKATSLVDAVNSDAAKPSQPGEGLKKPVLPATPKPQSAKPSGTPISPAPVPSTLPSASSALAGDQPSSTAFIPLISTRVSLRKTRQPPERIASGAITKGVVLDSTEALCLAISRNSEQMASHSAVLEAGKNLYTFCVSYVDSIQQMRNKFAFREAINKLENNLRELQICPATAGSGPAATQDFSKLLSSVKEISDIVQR
T24 sequence (O43283 whole entry): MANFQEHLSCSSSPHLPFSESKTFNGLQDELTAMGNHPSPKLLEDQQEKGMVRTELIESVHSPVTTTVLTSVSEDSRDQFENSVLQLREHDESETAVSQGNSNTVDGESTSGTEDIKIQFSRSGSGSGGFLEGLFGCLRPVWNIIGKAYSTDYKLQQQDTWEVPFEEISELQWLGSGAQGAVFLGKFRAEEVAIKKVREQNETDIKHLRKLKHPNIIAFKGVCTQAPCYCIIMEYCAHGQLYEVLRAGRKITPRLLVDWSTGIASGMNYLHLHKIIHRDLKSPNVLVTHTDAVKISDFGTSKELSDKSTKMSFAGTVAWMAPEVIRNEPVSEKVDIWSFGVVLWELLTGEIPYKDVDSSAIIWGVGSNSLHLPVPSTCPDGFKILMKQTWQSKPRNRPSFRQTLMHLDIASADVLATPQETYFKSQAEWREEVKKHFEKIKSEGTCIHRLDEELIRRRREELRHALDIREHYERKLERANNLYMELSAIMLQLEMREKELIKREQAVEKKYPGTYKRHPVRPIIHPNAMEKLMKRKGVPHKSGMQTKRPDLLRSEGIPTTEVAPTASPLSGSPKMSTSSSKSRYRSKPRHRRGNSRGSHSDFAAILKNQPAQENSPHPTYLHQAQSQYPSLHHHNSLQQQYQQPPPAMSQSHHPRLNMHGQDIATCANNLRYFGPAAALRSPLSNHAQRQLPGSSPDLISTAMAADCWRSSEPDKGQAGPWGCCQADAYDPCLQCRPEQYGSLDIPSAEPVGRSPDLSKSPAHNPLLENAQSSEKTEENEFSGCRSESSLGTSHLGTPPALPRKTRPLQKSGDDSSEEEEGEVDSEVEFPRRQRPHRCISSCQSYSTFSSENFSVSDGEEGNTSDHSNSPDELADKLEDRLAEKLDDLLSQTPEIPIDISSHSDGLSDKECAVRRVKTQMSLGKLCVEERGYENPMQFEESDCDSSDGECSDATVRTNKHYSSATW
T7 sequence (P49761 whole entry): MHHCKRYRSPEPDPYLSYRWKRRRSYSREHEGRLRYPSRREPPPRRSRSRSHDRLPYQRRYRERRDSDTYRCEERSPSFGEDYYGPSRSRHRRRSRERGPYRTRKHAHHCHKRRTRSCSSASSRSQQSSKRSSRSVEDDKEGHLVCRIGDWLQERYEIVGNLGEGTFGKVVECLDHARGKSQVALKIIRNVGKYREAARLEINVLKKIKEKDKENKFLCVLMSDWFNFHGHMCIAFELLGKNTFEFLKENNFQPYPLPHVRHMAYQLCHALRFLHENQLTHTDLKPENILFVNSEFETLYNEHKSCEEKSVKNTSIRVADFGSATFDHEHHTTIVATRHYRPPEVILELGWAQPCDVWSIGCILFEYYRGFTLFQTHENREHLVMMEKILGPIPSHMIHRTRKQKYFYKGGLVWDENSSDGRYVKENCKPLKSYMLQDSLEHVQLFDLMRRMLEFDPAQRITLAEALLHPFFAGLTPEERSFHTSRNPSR
T16 sequence (P42680 whole entry): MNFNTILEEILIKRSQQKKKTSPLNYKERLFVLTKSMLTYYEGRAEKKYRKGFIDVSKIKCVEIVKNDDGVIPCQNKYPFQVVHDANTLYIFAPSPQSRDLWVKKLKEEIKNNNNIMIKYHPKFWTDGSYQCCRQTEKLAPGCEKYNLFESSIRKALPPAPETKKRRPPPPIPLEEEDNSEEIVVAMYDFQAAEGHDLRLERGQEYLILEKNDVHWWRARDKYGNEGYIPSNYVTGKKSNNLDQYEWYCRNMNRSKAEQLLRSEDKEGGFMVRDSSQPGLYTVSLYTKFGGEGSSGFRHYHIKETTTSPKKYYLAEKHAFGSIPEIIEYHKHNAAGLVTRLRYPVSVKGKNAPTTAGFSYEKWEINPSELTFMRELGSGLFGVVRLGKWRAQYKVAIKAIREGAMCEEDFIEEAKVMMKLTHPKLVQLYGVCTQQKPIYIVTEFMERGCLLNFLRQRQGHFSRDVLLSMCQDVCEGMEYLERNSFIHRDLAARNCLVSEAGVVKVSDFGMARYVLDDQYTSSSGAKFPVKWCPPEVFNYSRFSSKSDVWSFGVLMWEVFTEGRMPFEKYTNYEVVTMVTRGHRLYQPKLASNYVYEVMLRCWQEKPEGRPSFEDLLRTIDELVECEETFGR
T1 sequence (P78356 whole entry): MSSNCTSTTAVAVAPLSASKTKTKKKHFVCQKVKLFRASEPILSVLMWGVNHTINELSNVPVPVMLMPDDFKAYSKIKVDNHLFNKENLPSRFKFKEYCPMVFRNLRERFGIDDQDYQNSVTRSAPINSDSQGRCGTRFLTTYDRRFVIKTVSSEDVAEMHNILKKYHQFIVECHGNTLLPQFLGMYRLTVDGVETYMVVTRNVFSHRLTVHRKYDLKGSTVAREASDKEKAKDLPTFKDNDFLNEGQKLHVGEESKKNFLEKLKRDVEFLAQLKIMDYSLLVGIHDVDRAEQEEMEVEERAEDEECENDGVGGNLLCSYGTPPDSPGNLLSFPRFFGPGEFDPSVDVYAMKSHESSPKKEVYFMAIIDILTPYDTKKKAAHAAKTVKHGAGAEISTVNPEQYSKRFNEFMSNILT

`Brc1ccc2nccc(Nc3ccc4cn[nH]c4c3)c2c1` [Compound 35, 6-Bromo-N-(1H-indazol-6-yl)quinolin-4-amine] showed an activity at 1 µM (PIP5K2B) of 100%, an activity at 1 µM (AMPK-alpha2) of 100% and an activity at 1 µM (CDK9) of 75%. For the same compound, the activity at 1 µM (PIM2) was 100%, the activity at 1 µM (LCK) was 100% and the activity at 1 µM (MLK2) was 100%. For the same compound, the activity at 1 µM (CLK3) was 100%, the activity at 1 µM (ERK3) was 100% and the activity at 1 µM (DAPK3) was 88%. The activity at 1 µM (ITK) was 100%, the activity at 1 µM (CDK4-cyclinD1) was 100% and the activity at 1 µM (ABL1-nonphosphorylated) was 88%. The activity at 1 µM (p38-delta) was 100%, the activity at 1 µM (ANKK1) was 100% and the activity at 1 µM (KIT(L576P)) was 100%. It also gave an activity at 1 µM (TEC) of 100%, an activity at 1 µM [1] of 88% and an activity at 1 µM (PIK4CB) of 100%. For the same compound, the activity at 1 µM (MST3) was 100%, the activity at 1 µM (FLT3(K663Q)) was 97% and the activity at 1 µM (NEK2) was 86%. It also gave an activity at 1 µM (TRPM6) of 100%, an activity at 1 µM (TRKC) of 82% and an activity at 1 µM (LZK) of 100%. It also gave an activity at 1 µM (TAOK1) of 95%, an activity at 1 µM (FLT3(D835V)) of 100% and an activity at 1 µM (CDC2L5) of 73%. For the same compound, the activity at 1 µM (PKMYT1) was 100%, the activity at 1 µM (ASK1) was 100% and the activity at 1 µM (HPK1) was 100%. It also gave an activity at 1 µM (CLK1) of 100%, an activity at 1 µM (SRPK1) of 100% and an activity at 1 µM (FGR) of 100%. The activity at 1 µM (MAP3K2) was 100%, the activity at 1 µM (BRK) was 93% and the activity at 1 µM (EGFR(E746-A750del)) was 79%. The activity at 1 µM (ALK(L1196M)) was 86%, the activity at 1 µM (EGFR(S752-I759del)) was 89% and the activity at 1 µM (PIK3CA(M1043I)) was 99%. For the same compound, the activity at 1 µM (CDK2) was 100%, the activity at 1 µM [2] was 70% and the activity at 1 µM (DLK) was 100%.

— publication PMC6891286, “Towards the Development of an In vivo Chemical Probe for Cyclin G Associated Kinase (GAK)” (Molecules, 2019)
